Data as given in patent US10292383B2, “Use of surface-reacted calcium carbonate as carrier for agrochemical compounds” (Omya International AG, priority 2015, dated 2019).

Test system: Plasmopara viticola
Assay: Field application trial against downy mildew on vineyard (PESSEV / PESINC assessment on leaves and bunches)
Format: in vivo
Settings: between T2 (0.021 kg DM/ha) and T3 (0.21 kg DM/ha), both on leaves and bunches
Protocol: The application trials were carried out in Piedmont, Italy. In these trials, three different dosage rates of three of the above-mentioned samples (SRCC1-0.5 DM, SRCC1-5 DM, SRCC1-25 DM) were applied against downy mildew on vineyard and the efficacy and selectivity thereof was evaluated. In addition, the performance in comparison to commercially available fungicides was also evaluated. […]
The efficacy against Plasmopara viticola and the selectivity on the crop of the test products SRCC1-0.5 DM and SRCC1-5 DM both applied in mixture with tribasic copper sulfate (Cupravit Bio Evoluion WG), respectively, in treatments T2 and T3, were evaluated. […]
The efficacy of SRCC1-25 DM was also evaluated in treatment T4 and compared with the reference F50 sprayed in treatment T6. […]
In this trial according to the present invention, the disease pressure was assessed through two standard parameters: • (i) PESSEV=the pest severity (i.e. the intensity) determined as infected area per bunch or leaf in %; and • (ii) PESINC=the pest incidence (i.e. the frequency) determined in % of bunches and leaves infected. […]

COc1ccc(C(=CC(=O)N2CCOCC2)c2ccc(Cl)cc2)cc1OC [dimethomorph]
dosage rate effect of active ingredient: significant dosage rate effect
